{
  "source": "paper PMC4459817",
  "about": "“Vasculotide reduces endothelial permeability and tumor cell extravasation in the absence of binding to or agonistic activation of Tie2” (EMBO Molecular Medicine, 2015)",
  "key": {"[1]": {"tested_on": "human microvascular ECs of dermal blood vessel origin (HMVEC-DBl)", "test": "modified Boyden chamber, thrombin-stimulated FITC-dextran permeability, HMVEC-DBl", "type": "cell-based", "conditions": "Fig1D", "description": "(§1) ECs were first treated with Vasculotide (VT), PBS (vehicle/negative control), Ang1 (positive control), PEG-Cys (polyethylene glycol backbone), T7c (non-PEGylated CHHHRHSF peptides), or VT in the presence of 100-fold molar excess of T7c. The concentrations used, 10–20 ng/mL VT and 200–400 ng/mL Ang1, are estimated molar equivalents (0.71–1.43 nM). Thirty minutes later, ECs were stimulated with thrombin, 0.1% BSA (vehicle/negative control), or EDTA (positive control). Another 30mins later, the amount of FITC-dextran diffusion into the lower chambers (A, D) provides a measure of endothelial permeability. CMTPX-labeled tumor cells (TCs) were then dispensed into inserts, and the amount of TC fluorescence emitting from the underside of insert membranes after 20 h (B–C) or 28 h (E) reflects the efficiency of trans-endothelial TC migration. Representative fluorescent images (10×) of membrane undersides are shown in (C), where DAPI-stained nuclei of ECs/TCs are shown in blue, ‘extravasated’ CMTPX-labeled TCs are shown in red, and the # of CMTPX^+ pixels are shown numerically in red. Means ± SEM are shown (A,B,D,E). Three experiments (twice with HMVEC-LBl and once with HMVEC-DBl) were run with n = 3–5 inserts (independent biological replicates) per group and analyzed by two-sampled unpaired t-tests. […]\nEndothelial cells (ECs) were grown on cell culture inserts with uncoated 8-μm-pore PET filter membranes to 100% confluency. […] After 30 min of thrombin stimulation or 4–6 h of TC-CM stimulation, FITC fluorescence (ex/em = 490/520 nm) was measured from a 50 μl sample of the lower chamber media. […] CMPTX fluorescence from migrated TCs was then quantified from 10× microscopy images using a MATLAB (MathWorks, Natick, MA, USA) script; five images (technical replicates) were analyzed per insert. […]"}, "[2]": {"tested_on": "CMPTX-labeled tumor cells across HMVEC-LBl", "test": "modified Boyden chamber, trans-endothelial tumor cell migration, HMVEC-LBl", "type": "cell-based, human", "conditions": "20 h, Fig1B, C", "description": "as §1, with “Representative fluorescent images (10×) of membrane undersides are shown in (C), where DAPI-stained nuclei of ECs/TCs are shown in blue, ‘extravasated’ CMTPX-labeled TCs are shown in red, and the # of CMTPX^+ pixels are shown numerically in red. Means ± SEM are shown (A,B,D,E).” left out\nEndothelial cells (ECs) were grown on cell culture inserts with uncoated 8-μm-pore PET filter membranes to 100% confluency. […] After 30 min of thrombin stimulation or 4–6 h of TC-CM stimulation, FITC fluorescence (ex/em = 490/520 nm) was measured from a 50 μl sample of the lower chamber media. […]"}, "endothelial cells": {"tested_on": "endothelial cells", "conditions": "cells stimulated with sepsis-related mediators incl. thrombin; ref David et al, 2011; cited from earlier work", "source_text": "Thrombin is also a metastasis-associated factor that can promote endothelial adhesion and diapedesis of TCs (Nierodzik & Karpatkin, [2006])."}, "[3]": {"biological_target": "T1, mouse Tie2-Fc (Fc-conjugated extracellular domain of Tie2) (mouse, UniProt Q02858 23-746)", "T1 construct": "Tie2 receptor tyrosine kinase, mouse, extracellular domain; the supplementary Materials and Methods may tell them; also called mTie2-Fc; mTie2; source: purified", "test": "pull-down; purified human or mouse Tie2-Fc coupled to protein A sepharose beads; input ligand (rhAng1 or VT) incubated with the beads; bound and unbound fractions compared; beads only as control", "conditions": "both partners purified"}, "[4]": {"biological_target": "T2, human Tie2-Fc (Fc-conjugated extracellular domain of Tie2) (human, UniProt Q02763 23-748)", "T2 construct": "Tie2 receptor tyrosine kinase, human, extracellular domain; the supplementary Materials and Methods may tell them; also called hTie2-Fc; hTie2; source: purified", "test": "pull-down; purified human or mouse Tie2-Fc coupled to protein A sepharose beads; input ligand (rhAng1 or VT) incubated with the beads; bound and unbound fractions compared; beads only as control", "conditions": "both partners purified"}},
  "data": [
    {"molecule": "CHHHRHSF [Vasculotide, 4-armed maleimide-functionalized polyethylene glycol (PEG) backbone to link together four cysteine-capped T7 peptides, that is, CHHHRHSF]", "values": [
      {"measurement": "anti-permeability effect of VT in presence of 100-fold molar excess of T7c", "setting": "[1]; HMVEC-DBl", "result": "dampened the effects of VT"},
      {"measurement": "transendothelial permeability of FITC-dextran", "setting": "[1]; thrombin-stimulated HMVEC-DBl, VT 10–20 ng/mL, FITC fluorescence ex/em 490/520 nm, n = 3–5 inserts", "result": "counteract thrombin-stimulated increases in transendothelial permeability of FITC-dextran (P < 0.05"},
      {"measurement": "thrombin-stimulated migration of CMTPX-labeled TCs", "setting": "[2]", "result": "trends of reducing thrombin-stimulated migration"},
      {"measurement": "endothelial barrier integrity", "setting": "endothelial cells", "result": "preserve endothelial barrier integrity"}
    ]},
    {"molecule": "recombinant human Ang1 (rhAng1) (ligand, UniProt Q15389 16-498, looked up, angiopoietin-1, human, recombinant; also called angiopoietin-1; source: bought: R&D Systems (named for the Boyden chamber experiments)) HIGCSNQRRSPENSGRRYNRIQHGQCAYTFILPEHDGNCRESTTDQYNTNALQRDAPHVEPDFSSQKLQHLEHVMENYTQWLQKLENYIVENMKSEMAQIQQNAVQNHTATMLEIGTSLLSQTAEQTRKLTDVETQVLNQTSRLEIQLLENSLSTYKLEKQLLQQTNEILKIHEKNSLLEHKILEMEGKHKEELDTLKEEKENLQGLVTRQTYIIQELEKQLNRATTNNSVLQKQQLELMDTVHNLVNLCTKEGVLLKGGKREEEKPFRDCADVYQAGFNKSGIYTIYINNMPEPKKVFCNMDVNGGGWTVIQHREDGSLDFQRGWKEYKMGFGNPSGEYWLGNEFIFAITSQRQYMLRIELMDWEGNRAYSQYDRFHIGNEKQNYRLYLKGHTGTAGKQSSLILHGADFSTKDADNDNCMCKCALMLTGGWWFDACGPSNLNGMFYTAGQNHGKLNGIKWHYFKGPSYSLRSTTMMIRPLDF", "values": [
      {"measurement": "thrombin-stimulated migration of CMTPX-labeled TCs", "setting": "[2]", "result": "counteract thrombin induction of trans-endothelium macromolecular permeability and tumor cell migration"},
      {"measurement": "binding result", "setting": "[3]", "result": "binds"},
      {"measurement": "binding result", "setting": "[4]", "result": "binds"}
    ]}
  ]
}
